Data on 14 compounds can be found in patent publication US12226424B2, “Target protein degradation compounds, their anti-tumor use, their intermediates and use of intermediates” (ShanghaiTech University, priority 2018, dated 2025).

The subject of assay [1] is K562 cells (BCR-ABL positive). The assay can be described thus: Half inhibitory concentration (IC50) on tumor cells, CCK-8, K562. As to conditions: Homo sapiens, K562, 48 h, read-out: IC50 (nM)/K562 cell line.
Method: Determination of Half Inhibitory Concentration (IC50) of PROTAD Compounds on Tumor Cells
K562 cells were seeded in 100 μL of RPMI1640 complete medium at a density of 20,000 cells/well. 100 μL of the inoculated cells were treated with 100 μL diluted PROTAD compound of the present disclosure to be tested at 9 successively decreasing concentrations (starting at the highest concentration of 10 μM; 3-fold serial dilutions). After the cells were treated with the tested drugs for 48 hours, the cell viability determination was performed in accordance with CCK-8 reagent operating instructions. The negative control was DMSO, and positive control was a commercial inhibitor. After CCK-8 treatment for 2 h, the value of O.D.450 was measured using a microplate reader.
In another assay the target is BCR-ABL (Homo sapiens, UniProt P00519). The assay can be described thus: Western-blot half-degradation concentration (DC50) / degradation of BCR-ABL in K562 cells. As to conditions: read-out: DC50 (nM)/K562 cell line, BCR-ABL protein degradation, 24 hours, Western-blot.
Sequence of BCR-ABL (P00519 with tags, fused parts or gaps): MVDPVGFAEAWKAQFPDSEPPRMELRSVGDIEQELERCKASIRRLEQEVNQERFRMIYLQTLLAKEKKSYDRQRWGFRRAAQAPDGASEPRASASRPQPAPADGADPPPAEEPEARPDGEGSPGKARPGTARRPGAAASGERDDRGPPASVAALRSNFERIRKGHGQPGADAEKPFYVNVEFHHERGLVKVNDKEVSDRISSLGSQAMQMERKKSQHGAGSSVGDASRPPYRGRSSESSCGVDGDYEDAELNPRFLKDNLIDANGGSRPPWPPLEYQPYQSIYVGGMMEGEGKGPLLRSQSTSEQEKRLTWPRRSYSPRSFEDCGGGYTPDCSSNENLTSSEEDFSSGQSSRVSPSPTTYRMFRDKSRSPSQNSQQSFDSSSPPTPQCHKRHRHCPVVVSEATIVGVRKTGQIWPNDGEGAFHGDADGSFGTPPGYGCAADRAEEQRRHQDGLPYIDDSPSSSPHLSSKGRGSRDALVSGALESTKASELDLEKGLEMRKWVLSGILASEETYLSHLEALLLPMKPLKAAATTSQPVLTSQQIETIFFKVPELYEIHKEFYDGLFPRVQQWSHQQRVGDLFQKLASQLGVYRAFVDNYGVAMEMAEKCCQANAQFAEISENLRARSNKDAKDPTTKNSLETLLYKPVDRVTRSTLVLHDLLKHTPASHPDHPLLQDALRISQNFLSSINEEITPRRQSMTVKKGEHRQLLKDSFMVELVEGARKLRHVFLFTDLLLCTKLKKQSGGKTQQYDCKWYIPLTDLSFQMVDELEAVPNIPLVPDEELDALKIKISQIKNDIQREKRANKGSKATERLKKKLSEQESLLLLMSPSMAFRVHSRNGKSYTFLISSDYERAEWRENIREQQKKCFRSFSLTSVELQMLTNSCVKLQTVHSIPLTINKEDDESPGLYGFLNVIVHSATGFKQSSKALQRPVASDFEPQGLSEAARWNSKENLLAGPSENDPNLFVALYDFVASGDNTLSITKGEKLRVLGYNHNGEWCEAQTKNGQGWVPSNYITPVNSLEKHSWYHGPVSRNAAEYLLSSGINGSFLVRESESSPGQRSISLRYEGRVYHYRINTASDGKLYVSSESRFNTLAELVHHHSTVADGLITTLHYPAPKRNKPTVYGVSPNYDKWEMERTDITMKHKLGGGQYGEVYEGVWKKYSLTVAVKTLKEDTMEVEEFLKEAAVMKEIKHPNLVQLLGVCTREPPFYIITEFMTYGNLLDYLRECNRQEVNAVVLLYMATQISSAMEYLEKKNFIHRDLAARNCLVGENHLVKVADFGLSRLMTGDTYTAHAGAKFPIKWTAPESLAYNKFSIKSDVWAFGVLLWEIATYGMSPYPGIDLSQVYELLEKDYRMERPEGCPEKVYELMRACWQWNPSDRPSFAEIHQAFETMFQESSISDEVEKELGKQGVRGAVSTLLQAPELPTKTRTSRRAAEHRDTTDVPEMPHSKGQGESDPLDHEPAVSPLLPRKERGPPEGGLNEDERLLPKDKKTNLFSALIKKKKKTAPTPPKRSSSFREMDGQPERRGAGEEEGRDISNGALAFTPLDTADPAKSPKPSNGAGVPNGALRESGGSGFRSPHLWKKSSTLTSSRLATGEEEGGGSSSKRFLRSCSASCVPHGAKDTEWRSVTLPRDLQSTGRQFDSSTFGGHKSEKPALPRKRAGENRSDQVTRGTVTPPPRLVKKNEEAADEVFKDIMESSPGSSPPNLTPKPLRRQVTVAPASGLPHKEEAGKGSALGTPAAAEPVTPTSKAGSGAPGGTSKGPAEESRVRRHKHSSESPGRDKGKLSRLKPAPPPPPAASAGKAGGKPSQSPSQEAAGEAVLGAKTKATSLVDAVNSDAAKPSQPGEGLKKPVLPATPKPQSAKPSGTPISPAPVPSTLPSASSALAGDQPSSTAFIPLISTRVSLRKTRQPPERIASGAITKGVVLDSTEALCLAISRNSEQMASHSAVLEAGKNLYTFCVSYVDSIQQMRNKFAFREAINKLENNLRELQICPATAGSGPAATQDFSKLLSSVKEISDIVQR
For the next assay, the system named is MM1S cells. The assay can be described thus: Half inhibitory concentration (IC50) on BET-expressing tumor cells, CCK-8, MM1S. The conditions noted are these: Homo sapiens, MM1.S, 48/72 h, read-out: IC50 (nM)/MM1S cell line. It is filed as cell-based. On the procedure:
BET-expressing cells MV-4-11 cells (human B granulocytic leukemia cells), MDA-MB-231 cells (human breast cancer cells), MDA-MB-468 cells (human breast cancer cells), MDA-MB-453 Cells (human breast cancer cells), MM1S cells (myeloma (immunoglobulin A lambda), B lymphoblasts) and SR cells (human large cell immunoblast lymphoma) were purchased from the American Type Culture Collection (ATCC).
The cells used in this present disclosure were cultured in a 37° C. incubator containing 5% CO2. The complete cell culture medium was RPMI 1640/IMDM/DMEM medium with 10% fetal bovine serum, and the final concentrations of penicillin and streptomycin were 100 U/mL, respectively. All cells were tested negative for mycoplasma with mycoplasma detection kit before the experiment.
Determination of the Half Inhibitory Concentration (IC50) of PROTAD Compounds on Tumor Cells
MV-411 cells, MM1S cells and SR cells were seeded in 100 μL IMDM/RPMI1640/DMEM complete medium at a density of 15000/10000 cells/well; MDA-MB-231 cells, MDA-MB-468 cells, and MDA-MB453 cells were seeded in 100 μL IMDM/RPMI1640/DMEM complete medium at a density of 3000/5000 cells/well, respectively. 100 μL of the inoculated cells were treated with 0.5 μL diluted PROTAD compounds of the present disclosure to be tested at 10 successively decreasing concentrations (starting at the highest concentration of 10 μM; 5-fold serial dilutions). After the cells were treated with the tested drugs 48/72 h, the cell viability was determined according to the CCK-8 reagent manual. The negative control was DMSO, and the positive control was a commercial inhibitor. After CCK-8 treatment for 2 h, the value of O.D.450 was measured using a microplate reader.

A further assay concerns MV-4-11 cells. The assay can be described thus: Half inhibitory concentration (IC50) on BET-expressing tumor cells, CCK-8, MV-4-11. The conditions noted are these: Homo sapiens, MV4-11, read-out: IC50 (nM)/MV-4-11 cell line, MV-4-11 cells, 48/72 h, CCK-8.
For another assay, the system named is SR cells. The assay can be described thus: Half inhibitory concentration (IC50) on ALK-positive SR cell proliferation (CCK-8). It is filed as cell-based. As to conditions: Homo sapiens; SR cells, 72 h drug treatment, CCK-8; read-out: IC50 (nM)/ SR cell line. Put shortly:
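SR cells seeded at 10,000 cells/well in RPMI1640 and treated with PROTAD compounds at 10 concentrations (top 10 μM, 5-fold dilutions) for 72 h at 37° C, 5% CO2. Viability read by CCK-8 (2 h) at OD450; DMSO as negative control.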

Another assay has as its target ALK protein (Homo sapiens, UniProt Q9UM73). In words: Western-blot half degradation concentration (DC50) of ALK protein in H3122 cells. It is filed as cell-based. The conditions noted are these: 24 h drug treatment, read-out: DC50 (nM)/ H3122 cell line. On the procedure:
ALK-positive SR cells (human large cell immunoblastic lymphoma) were purchased from the American Type Culture Collection (ATCC); H3122 cells (human non-small cell lung cancer) were from the Shanghai University of Science and Technology Lin Haifan's research group.
The cells used in this present disclosure were cultured in a 37° C. incubator containing 5% CO2.
DC50 (drug concentration corresponding to protein degradation to 50%) calculation: according to the gray value of the corresponding Western blotting band after drug treatment, fitting the relationship curve between drug concentration and gray value to calculate the drug concentration range corresponding to half of the gray value.

Sequence of ALK protein (Q9UM73 with tags, fused parts or gaps): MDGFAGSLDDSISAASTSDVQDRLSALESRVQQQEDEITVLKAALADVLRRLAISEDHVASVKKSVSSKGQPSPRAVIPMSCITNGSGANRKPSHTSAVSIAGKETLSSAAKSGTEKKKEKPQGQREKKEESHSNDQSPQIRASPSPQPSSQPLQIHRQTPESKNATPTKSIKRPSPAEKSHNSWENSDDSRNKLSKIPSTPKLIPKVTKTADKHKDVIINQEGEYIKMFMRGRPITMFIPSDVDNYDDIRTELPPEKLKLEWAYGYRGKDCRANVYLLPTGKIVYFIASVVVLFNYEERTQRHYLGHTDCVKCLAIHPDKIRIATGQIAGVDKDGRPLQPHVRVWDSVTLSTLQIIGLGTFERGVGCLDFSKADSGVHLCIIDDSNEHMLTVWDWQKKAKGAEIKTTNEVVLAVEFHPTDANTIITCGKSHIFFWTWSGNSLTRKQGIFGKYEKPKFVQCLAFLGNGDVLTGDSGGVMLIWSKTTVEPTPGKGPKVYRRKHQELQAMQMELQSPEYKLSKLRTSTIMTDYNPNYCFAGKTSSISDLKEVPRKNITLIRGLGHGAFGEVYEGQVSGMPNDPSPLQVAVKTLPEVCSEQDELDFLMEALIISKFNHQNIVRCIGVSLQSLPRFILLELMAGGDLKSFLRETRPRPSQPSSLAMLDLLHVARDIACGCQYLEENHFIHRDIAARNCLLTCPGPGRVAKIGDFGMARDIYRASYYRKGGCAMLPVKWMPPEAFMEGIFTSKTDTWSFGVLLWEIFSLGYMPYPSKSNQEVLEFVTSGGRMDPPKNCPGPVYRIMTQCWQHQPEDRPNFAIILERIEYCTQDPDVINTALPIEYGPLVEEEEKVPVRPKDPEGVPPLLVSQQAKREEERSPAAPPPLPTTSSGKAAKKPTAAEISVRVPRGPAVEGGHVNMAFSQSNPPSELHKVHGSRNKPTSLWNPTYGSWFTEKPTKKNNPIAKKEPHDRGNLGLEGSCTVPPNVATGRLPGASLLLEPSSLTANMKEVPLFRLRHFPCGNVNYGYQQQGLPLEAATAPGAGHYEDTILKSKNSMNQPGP

Turning to `Cc1nc(Nc2ncc(C(=O)Nc3c(C)cccc3Cl)s2)cc(N2CCN(C(=O)CCSc3cccc4c3C(=O)N(C3CCC(=O)NC3=O)C4=O)CC2)n1` (stereo not shown) [SIAIS151152, N-(2-chloro-6-methylphenyl)-2-((6-(4-(3-((2-(2,6-dioxopiperidin-3-yl)-1,3-dioxoisoindolin-4-yl)thio)propanoyl)piperazin-1-yl)-2-methylpyrimidin-4-yl)amino)thiazole-5-carboxamide], the IC50 in assay [1] is 11.1 nM. The DC50 on BCR-ABL was less than 1 nM.

For `Cc1nc(Nc2ncc(C(=O)Nc3c(C)cccc3Cl)s2)cc(N2CCN(C(=O)CCCSc3cccc4c3C(=O)N(C3CCC(=O)NC3=O)C4=O)CC2)n1` (stereo not shown) [SIAIS151153, N-(2-chloro-6-methylphenyl)-2-((6-(4-(4-((2-(2,6-dioxopiperidin-3-yl)-1,3-dioxoisoindolin-4-yl)thio)butanoyl)piperazin-1-yl)-2-methylpyrimidin-4-yl)amino)thiazole-5-carboxamide], in assay [1], the IC50 was found to be 15 nM. The DC50 on BCR-ABL is 20.7 nM.

`Cc1nc(Nc2ncc(C(=O)Nc3c(C)cccc3Cl)s2)cc(N2CCN(C(=O)CCCCSc3cccc4c3C(=O)N(C3CCC(=O)NC3=O)C4=O)CC2)n1` (stereo not shown) [SIAIS151154, N-(2-chloro-6-methylphenyl)-2-((6-(4-(5-((2-(2,6-dioxopiperidin-3-yl)-1,3-dioxoisoindolin-4-yl)thio)pentanoyl)piperazin-1-yl)-2-methylpyrimidin-4-yl)amino)thiazole-5-carboxamide]: in assay [1], the IC50 came out at 5.74 nM. For the same compound, the DC50 at BCR-ABL was found to be 2 nM.

Take `Cc1nc(Nc2ncc(C(=O)Nc3c(C)cccc3Cl)s2)cc(N2CCN(C(=O)CCCCCSc3cccc4c3C(=O)N(C3CCC(=O)NC3=O)C4=O)CC2)n1` (stereo not shown) [SIAIS151155, N-(2-chloro-6-methylphenyl)-2-((6-(4-(6-((2-(2,6-dioxopiperidin-3-yl)-1,3-dioxoisoindolin-4-yl)thio)hexanoyl)piperazin-1-yl)-2-methylpyrimidin-4-yl)amino)thiazole-5-carboxamide]: the IC50 in assay [1] amounted to 8.66 nM. Also, at BCR-ABL, the DC50 amounted to 0.8 nM.

As to `Cc1nc(Nc2ncc(C(=O)Nc3c(C)cccc3Cl)s2)cc(N2CCN(C(=O)CCCCCCSc3cccc4c3C(=O)N(C3CCC(=O)NC3=O)C4=O)CC2)n1` (stereo not shown) [SIAIS151156, N-(2-chloro-6-methylphenyl)-2-((6-(4-(7-((2-(2,6-dioxopiperidin-3-yl)-1,3-dioxoisoindolin-4-yl)thio)heptanoyl)piperazin-1-yl)-2-methylpyrimidin-4-yl)amino)thiazole-5-carboxamide], in assay [1], the IC50 stood at 6.63 nM. Also, the DC50 on BCR-ABL stood at 2.9 nM.

Turning to `Cc1sc2c(c1C)C(c1ccc(Cl)cc1)=N[C@@H](CC(=O)NCCOCCOCCSc1cccc3c1C(=O)N(C1CCC(=O)NC1=O)C3=O)c1nnc(C)n1-2` (stereo partly drawn) [SIAIS213070, 2-((S)-4-(4-chlorophenyl)-2,3,9-trimethyl-6H-thieno[3,2-f][1,2,4]triazolo[4,3-a][1,4]diazepin-6-yl)-N-(2-(2-(2-((2-(2,6-dioxopiperidin-3-yl)-1,3-dioxoisoindolin-4-yl)thio)ethoxy)ethoxy)ethyl)acetamide], the IC50 worked out at 12.8 nM with MM1S cells and 2 ± 0.4 nM in the assay with MV-4-11 cells.

For `Cc1sc2c(c1C)C(c1ccc(Cl)cc1)=N[C@@H](CC(=O)NCCOCCOCCSc1cccc3c1CN(C1CCC(=O)NC1=O)C3=O)c1nnc(C)n1-2` (stereo partly drawn) [SIAIS213072, 2-((S)-4-(4-chlorophenyl)-2,3,9-trimethyl-6H-thieno[3,2-f][1,2,4]triazolo[4,3-a][1,4]diazepin-6-yl)-N-(2-(2-(2-((2-(2,6-dioxopiperidin-3-yl)-1-oxoisoindolin-4-yl)thio)ethoxy)ethoxy)ethyl)acetamide], the results for the IC50 in the assay on MM1S cells and with MV-4-11 cells were 3.03 nM and 0.5 ± 0.1 nM, respectively.

Take `Cc1sc2c(c1C)C(c1ccc(Cl)cc1)=N[C@@H](CC(=O)NCCCCNC(=O)CSc1cccc3c1C(=O)N(C1CCC(=O)NC1=O)C3=O)c1nnc(C)n1-2` (stereo partly drawn) [SIAIS213075, 2-((S)-4-(4-chlorophenyl)-2,3,9-trimethyl-6H-thieno[3,2-f][1,2,4]triazolo[4,3-a][1,4]diazepin-6-yl)-N-(4-(2-((2-(2,6-dioxopiperidin-3-yl)-1,3-dioxoisoindolin-4-yl)thio)acetamido)butyl)acetamide]: the IC50 in the assay on MM1S cells is 96.1 nM; in the assay on MV-4-11 cells, 6.5 ± 2.5 nM.

As for `Cc1sc2c(c1C)C(c1ccc(Cl)cc1)=N[C@@H](CC(=O)NCCCCNC(=O)CSc1cccc3c1CN(C1CCC(=O)NC1=O)C3=O)c1nnc(C)n1-2` (stereo partly drawn) [SIAIS213094, 2-((S)-4-(4-chlorophenyl)-2,3,9-trimethyl-6H-thieno[3,2-f][1,2,4]triazolo[4,3-a][1,4]diazepin-6-yl)-N-(4-(2-((2-(2,6-dioxopiperidin-3-yl)-1-oxoisoindolin-4-yl)thio)acetamido)butyl)acetamide], the IC50 with MM1S cells was 42.5 nM; in the assay on MV-4-11 cells it was 4.9 ± 0.8 nM.

As to `COc1cc(N2CCN(C(=O)CSc3cccc4c3C(=O)N(C3CCC(=O)NC3=O)C4=O)CC2)ccc1Nc1ncc(Cl)c(Nc2ccccc2P(C)(C)=O)n1` (stereo not shown) [SIAIS1197113, 4-((2-(4-(4-((5-chloro-4-((2-(dimethylphosphoryl)phenyl)amino)pyrimidin-2-yl)amino)-3-methoxyphenyl)piperazin-1-yl)-2-oxoethyl)thio)-2-(2,6-dioxopiperidin-3-yl)isoindoline-1,3-dione], the IC50 in the assay with SR cells came out at 23.6 ± 19.4 nM. Moreover, the DC50 at ALK protein was found to be 100 nM.

`COc1cc(N2CCN(C(=O)CCSc3cccc4c3C(=O)N(C3CCC(=O)NC3=O)C4=O)CC2)ccc1Nc1ncc(Cl)c(Nc2ccccc2P(C)(C)=O)n1` (stereo not shown) [SIAIS1197115, 4-((3-(4-(4-((5-chloro-4-((2-(dimethylphosphoryl)phenyl)amino)pyrimidin-2-yl)amino)-3-methoxyphenyl)piperazin-1-yl)-3-oxopropyl)thio)-2-(2,6-dioxopiperidin-3-yl)isoindoline-1,3-dione]: the IC50 in the assay on SR cells was 42 ± 29.3 nM. For the same compound, the DC50 at ALK protein is 500 nM.

On to `COc1cc(N2CCN(C(=O)CCCSc3cccc4c3C(=O)N(C3CCC(=O)NC3=O)C4=O)CC2)ccc1Nc1ncc(Cl)c(Nc2ccccc2P(C)(C)=O)n1` (stereo not shown) [SIAIS1197117, 4-((4-(4-(4-((5-chloro-4-((2-(dimethylphosphoryl)phenyl)amino)pyrimidin-2-yl)amino)-3-methoxyphenyl)piperazin-1-yl)-4-oxobutyl)thio)-2-(2,6-dioxopiperidin-3-yl)isoindoline-1,3-dione], for which, in the assay on SR cells, the IC50 turned out to be 16.9 ± 12 nM. Moreover, the DC50 at ALK protein is 500 nM.

Turning to `COc1cc(N2CCN(C(=O)CCCCSc3cccc4c3C(=O)N(C3CCC(=O)NC3=O)C4=O)CC2)ccc1Nc1ncc(Cl)c(Nc2ccccc2P(C)(C)=O)n1` (stereo not shown) [SIAIS1197119, 4-((5-(4-(4-((5-chloro-4-((2-(dimethylphosphoryl)phenyl)amino)pyrimidin-2-yl)amino)-3-methoxyphenyl)piperazin-1-yl)-5-oxopentyl)thio)-2-(2,6-dioxopiperidin-3-yl)isoindoline-1,3-dione], in the assay with SR cells, the IC50 came out at 13.2 ± 2.6 nM. Also, the DC50 on ALK protein was 500 nM.

`COc1cc(N2CCN(C(=O)CCCCCCSc3cccc4c3C(=O)N(C3CCC(=O)NC3=O)C4=O)CC2)ccc1Nc1ncc(Cl)c(Nc2ccccc2P(C)(C)=O)n1` (stereo not shown) [SIAIS1197159, 4-((7-(4-(4-((5-chloro-4-((2-(dimethylphosphoryl)phenyl)amino)pyrimidin-2-yl)amino)-3-methoxyphenyl)piperazin-1-yl)-7-oxoheptyl)thio)-2-(2,6-dioxopiperidin-3-yl)isoindoline-1,3-dione]: the IC50 in the assay with SR cells was determined as 10 ± 5.7 nM. Also, the DC50 on ALK protein was 500 nM.
